Results from BindingDB's records for doi:10.1016/s0960-894x(03)00105-7 (University of California Irvine, 2003).

Molecular target: Serine/threonine-protein phosphatase 2A catalytic subunit alpha
Experiment: Inhibition of protein phosphatase 2A (PP2A) was determined by standard phosphorylase a inhibition assay

Row | IC50 | SMILES
1 | 300 µM | CO[C@@H]([C@H](O)CC(=O)[C@@H](C)[C@@H](O)CC[C@@H](C)[C@@H]1O[C@]2(CC[C@@H](C)[C@H](CC[C@H](C)C(C)=O)O2)CC[C@@H]1C)[C@H](OC(=O)CCCP(=O)(O)O)C(C)C [4-Phosphono-butyric acid (1R,2S,3R,6S,7S,10R)-10-[(2S,3S,6R,8S,9R)-3,9-dimethyl-8-((S)-3-methyl-4-oxo-pentyl)-1,7-dioxa-spiro[5.5]undec-2-yl]-3,7-dihydroxy-1-isopropyl-2-methoxy-6-methyl-5-oxo-undecyl ester]
2 | 4 µM | CO[C@@H]([C@H](O)CC(=O)[C@@H](C)[C@@H](O)CC[C@@H](C)[C@@H]1O[C@]2(CC[C@@H](C)[C@H](CC[C@H](C)C(C)=O)O2)CC[C@@H]1C)[C@H](OC(=O)C[C@@H](O)/C=C(\C)C(=O)O)C(C)C [(E)-(R)-4-Hydroxy-2-methyl-hex-2-enedioic acid 6-{(1R,2S,3R,6S,7S,10R)-10-[(2S,3S,6R,8S,9R)-3,9-dimethyl-8-((S)-3-methyl-4-oxo-pentyl)-1,7-dioxa-spiro[5.5]undec-2-yl]-3,7-dihydroxy-1-isopropyl-2-methoxy-6-methyl-5-oxo-undecyl} ester]
3 | 100 µM | CO[C@@H]([C@H](O)CC(=O)[C@@H](C)[C@@H](O)CC[C@@H](C)[C@@H]1O[C@]2(CC[C@@H](C)[C@H](CC[C@H](C)C(C)=O)O2)CC[C@@H]1C)[C@H](OC(=O)C[C@@](C)(O)C(=O)O)C(C)C [(R)-2-Hydroxy-2-methyl-succinic acid 4-{(1R,2S,3R,6S,7S,10R)-10-[(2S,3S,6R,8S,9R)-3,9-dimethyl-8-((S)-3-methyl-4-oxo-pentyl)-1,7-dioxa-spiro[5.5]undec-2-yl]-3,7-dihydroxy-1-isopropyl-2-methoxy-6-methyl-5-oxo-undecyl} ester]
4 | 29 µM | CO[C@@H]([C@H](O)CC(=O)[C@@H](C)[C@@H](O)CC[C@@H](C)[C@@H]1O[C@]2(CC[C@@H](C)[C@H](CC[C@H](C)C(C)=O)O2)CC[C@@H]1C)[C@H](OC(=O)C[C@](C)(O)C(=O)O)C(C)C [(S)-2-Hydroxy-2-methyl-succinic acid 4-{(1R,2S,3R,6S,7S,10R)-10-[(2S,3S,6R,8S,9R)-3,9-dimethyl-8-((S)-3-methyl-4-oxo-pentyl)-1,7-dioxa-spiro[5.5]undec-2-yl]-3,7-dihydroxy-1-isopropyl-2-methoxy-6-methyl-5-oxo-undecyl} ester]
